Experimental data published in PMC3446250 (2012).

Target: T1, GLIC (Gloeobacter violaceus, UniProt Q7NDN8, N194C)
T1 sequence (Q7NDN8 44-359 N194C): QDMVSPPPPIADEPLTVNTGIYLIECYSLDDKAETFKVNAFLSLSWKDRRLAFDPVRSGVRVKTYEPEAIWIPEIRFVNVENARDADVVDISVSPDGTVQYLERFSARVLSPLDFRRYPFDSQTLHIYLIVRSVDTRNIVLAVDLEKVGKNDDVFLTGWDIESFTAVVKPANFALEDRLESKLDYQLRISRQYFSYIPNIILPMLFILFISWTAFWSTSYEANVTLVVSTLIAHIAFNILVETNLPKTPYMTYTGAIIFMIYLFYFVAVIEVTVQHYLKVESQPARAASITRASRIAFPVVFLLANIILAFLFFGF
Assay: two-electrode voltage clamp in Xenopus oocytes at EC20
Type: cell-based

## CNC1(c2ccccc2Cl)CCCCC1=O (stereo not shown) [ketamine]
  IC50: 110 µM
